Assay results from patent US20040092561A1, “Azolidinone-vinyl fused -benzene derivatives” (priority 2002, published 2004).

Key:
PI3Kγ = PI3Kγ (Homo sapiens, UniProt P48736); experiment: High Throughput PI3K Lipid Kinase Assay (Binding Assay), SPA with neomycin-coated beads; format: biochemical; settings: Human recombinant GST-PI3Kγ; [33P]γ-ATP; 180 minutes, room temperature
Protocol: a) High Throughput PI3K Lipid Kinase Assay (Binding Assay)
The assay combines the scintillation proximity assay technology (SPA, Amersham) with the capacity of neomycin (a polycationic antibiotic) to bind phospholipids with high affinity and specificity. The Scintillation Proximity Assay is based on the properties of weakly emitting isotopes (such as ^3H, ^125I, ^33P). Coating SPA beads with neomycin allows the detection of phosphorylated lipid substrates after incubation with recombinant PI3K and radioactive ATP in the same well, by capturing the radioactive phospholipids to the SPA beads through their specific binding to neomycin.
To a 384 wells MTP containing 5 μl of a chemical compound library (containing 6% DMSO), the following assay components are added. 1) 5 μl (58 ng) of Human recombinant GST-PI3Kγ (in Hepes 40 mM, pH 7.4, DTT 1 mM and ethylenglycol 5%) 2) 10 μl of lipid micelles and 3) 10 μl of Kinase buffer ([^33P]γ-ATP 45 μM/60 nCi, MgCl2 30 mM, DTT 1 mM, P-Glycerophosphate 1 mM, NaVO4 100 μM, Na Cholate 0.3%, in Hepes 40 mM, pH 7.4). After incubation at room temperature for 180 minutes, with gentle agitation, the reaction is stopped by addition of 60 μl of a solution containing 100 μg of neomycin-coated PVT SPA beads in PBS containing ATP 10 mM and EDTA 5 mM. The assay is further incubated at room temperature for 60 minutes with gentle agitation to allow binding of phospholipids to neomycin-SPA beads. After precipitation of the neomycin-coated PVT SPA beads for 5 minutes at 1500×g, radioactive PtdIns(3)P is quantified by scintillation counting in a Wallac MicroBeta™ plate counter.
The values indicated in respect of PI3K γ refer to the IC50 (μM), i.e. the amount necessary to achieve 50% inhibition of said target. Said values show a considerable potency of the azolidinone-vinyl fused-benzene compounds with regard to PI3Kγ.

[1] = system: Akt/PKB phosphorylation in macrophages; experiment: Cell Based ELISA to Monitor PI3K Inhibition: Akt/PKB phosphorylation in Raw 264-7 macrophages after stimulation with C5a; settings: Mus musculus, RAW264.7, 50 nM C5a, 5 minutes, 20 minutes pretreatment, read-out: inhibition of C5a-mediated AKT-phosphorylation
Protocol: b) Cell Based ELISA to Monitor PI3K Inhibition
Measurement of Akt/PKB phosphorylation in macrophages after stimulation with C5a: Raw 264: Raw 264-7 macrophages (cultured in DMEM-F12 medium containing 10%
Fetal Calf serum and antibiotics) are plated at 20'000 cells/well in a 96 MTP 24 h before cell stimulation. Previous to the stimulation with 50 nM of Complement 5a during 5 minutes, Cells are serum starved for 2 h, and pretreated with inhibitors for 20 minutes. After stimulation cells are fixed in 4% formaldehyde for 20 minutes and washed 3 times in PBS containing 1% Triton X-100 (PBS/Triton). Endogenous peroxidase is blocked by a 20 minutes incubation in 0.6% H2O2 and 0.1% Sodium Azide in PBS/Triton and washed 3 times in PBS/Triton. Cells are then blocked by 60 minutes incubation with 10% fetal calf serum in PBS/Triton. Next, phosphorylated Akt/PKB is detected by an overnight incubation at 4° C. with first antibody (anti phospho Serine 473 Akt IHC, Cell Signaling) diluted 800-fold in PBS/Triton, containing 5% bovine serum albumin (BSA). After 3 washes in PBS/Triton, cells are incubated for 60 minutes with a peroxidase conjugated goat-anti-rabbit antibody ( 1/400 dilution in PBS/Triton, containing 5% BSA), washed 3 times in PBS/Triton, and 2 times in PBS and further incubated in 100 μl of substrate reagent solution (R&D) for 20 minutes. The reaction is stopped by addition of 50 μI of 1 M SO4H2 and absorbance is read at 450 nm.
The values indicated reflect the percentage of inhibition of AKT phoshorylation as compared to basal level. Said values show a clear effect of the azolidinone-vinyl fused-benzene compounds on the activation of AKT phosphorylation in macrophages.

PI3Kγ, sequence (P48736 whole entry): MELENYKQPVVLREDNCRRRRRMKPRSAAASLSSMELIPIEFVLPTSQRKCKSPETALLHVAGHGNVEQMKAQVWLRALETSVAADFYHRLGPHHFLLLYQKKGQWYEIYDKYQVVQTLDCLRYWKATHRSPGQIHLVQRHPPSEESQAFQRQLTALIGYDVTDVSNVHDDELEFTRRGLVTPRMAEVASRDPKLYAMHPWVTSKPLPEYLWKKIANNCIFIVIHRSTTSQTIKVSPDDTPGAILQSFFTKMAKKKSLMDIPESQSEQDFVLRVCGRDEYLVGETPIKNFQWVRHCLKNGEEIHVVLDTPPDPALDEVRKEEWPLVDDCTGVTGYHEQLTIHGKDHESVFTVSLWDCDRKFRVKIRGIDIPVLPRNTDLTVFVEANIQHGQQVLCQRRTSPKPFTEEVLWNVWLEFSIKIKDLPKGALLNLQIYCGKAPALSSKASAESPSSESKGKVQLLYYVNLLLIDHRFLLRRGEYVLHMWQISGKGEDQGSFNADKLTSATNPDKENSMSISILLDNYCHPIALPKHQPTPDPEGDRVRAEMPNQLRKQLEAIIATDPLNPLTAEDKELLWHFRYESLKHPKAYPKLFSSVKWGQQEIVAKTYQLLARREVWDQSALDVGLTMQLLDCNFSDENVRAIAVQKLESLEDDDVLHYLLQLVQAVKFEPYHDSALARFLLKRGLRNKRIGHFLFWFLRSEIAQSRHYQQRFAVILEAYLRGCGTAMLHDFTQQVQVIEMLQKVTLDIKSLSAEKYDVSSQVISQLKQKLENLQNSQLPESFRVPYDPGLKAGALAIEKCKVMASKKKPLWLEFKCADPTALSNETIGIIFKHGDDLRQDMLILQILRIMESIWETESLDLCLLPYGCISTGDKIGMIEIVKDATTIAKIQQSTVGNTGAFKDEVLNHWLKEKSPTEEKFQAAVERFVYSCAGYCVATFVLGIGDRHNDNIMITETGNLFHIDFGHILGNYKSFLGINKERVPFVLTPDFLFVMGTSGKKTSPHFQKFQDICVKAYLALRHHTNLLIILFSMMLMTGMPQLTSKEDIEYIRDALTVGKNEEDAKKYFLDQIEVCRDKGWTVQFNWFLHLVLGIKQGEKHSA

| IC50 (PI3Kγ) | Compound | inhibition at 10 µM [1] |
| --- | --- | --- |
| 50 nM | O=C1NC(=O)/C(=C/c2ccc3c(c2)OCO3)S1 [Example 1, (5Z)-5-(1,3-benzodioxol-5-ylmethylene)-1,3-thiazolidine-2,4-dione] | 80% |
| 60 nM | O=C1NC(=S)S/C1=C/c1ccc2c(c1)OCO2 [Example 2, (5E)-5-(1,3-benzodioxol-5-ylmethylene)-2-thioxo-1,3-thiazolidin-4-one] | 80% |
|  | O=C1NC(=O)/C(=C/c2ccc3c(c2)CCO3)S1 [Example 4, (5Z)-5-(2,3-dihydro-1-benzofuran-5-ylmethylene)-1,3-thiazolidine-2,4-dione] | 80% |
| 30 nM | CN1C(=O)COc2ccc(/C=C3\SC(=O)NC3=O)cc21 [Example 10, (5Z)-5-[(4-methyl-3-oxo-3,4-dihydro-2H-1,4-benzoxazin-6-yl)methylene]-1,3-thiazolidine-2,4-dione] |  |
